According to PubChem BioAssay (NCI):
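Test compounds were applied to cells in 96-well plates for 48 hours at 5 doses. GI50 = concentration required for 50% inhibition of growth. At the TGI there is no net growth.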

How the values were obtained:
Test in all cases: NCI-60 cell line screen, 48 h
[1] = tested on: BT-549 breast
[2] = tested on: EKVX NSCLC
[3] = tested on: HL-60(TB) leukemia
[4] = tested on: HOP-62 NSCLC
[5] = tested on: HS 578T breast
[6] = tested on: LOX IMVI melanoma
[7] = tested on: MDA-MB-231 breast
[8] = tested on: NCI-H23 lung
[9] = tested on: NCI-H522 lung
[10] = tested on: OVCAR-8 ovarian
[11] = tested on: SF-268 CNS
[12] = tested on: SK-MEL-2 melanoma
[13] = tested on: SN12C renal
[14] = tested on: SNB-19 CNS
[15] = tested on: SNB-75 CNS
[16] = tested on: UACC-62 melanoma
[17] = tested on: HCC-2998 colon
[18] = tested on: HCT-116 colon
[19] = tested on: HCT-15 colon
[20] = tested on: HT29 colon
[21] = tested on: IGROV1 ovarian
[22] = tested on: K-562 leukemia
[23] = tested on: KM12 colon
[24] = tested on: M14 melanoma
[25] = tested on: MCF7 breast
[26] = tested on: NCI-H226 lung
[27] = tested on: OVCAR-5 ovarian
[28] = tested on: SK-MEL-28 melanoma
[29] = tested on: SR leukemia
[30] = tested on: SW-620 colon
[31] = tested on: UACC-257 melanoma
[32] = tested on: 786-0 renal
[33] = tested on: A498 renal
[34] = tested on: A549 NSCLC
[35] = tested on: ACHN renal
[36] = tested on: CAKI-1 renal
[37] = tested on: CCRF-CEM leukemia
[38] = tested on: COLO 205 colon
[39] = tested on: HOP-92 NSCLC
[40] = tested on: MDA-MB-435
[41] = tested on: MOLT-4 leukemia
[42] = tested on: NCI-H460 lung
[43] = tested on: NCI/ADR-RES ovarian
[44] = tested on: OVCAR-3 ovarian
[45] = tested on: OVCAR-4 ovarian
[46] = tested on: PC-3 prostate
[47] = tested on: RPMI-8226 leukemia
[48] = tested on: SF-295 CNS
[49] = tested on: SF-539 CNS
[50] = tested on: SK-MEL-5 melanoma
[51] = tested on: SK-OV-3 ovarian
[52] = tested on: T-47D breast
[53] = tested on: U251 CNS
[54] = tested on: UO-31 renal

SMILES: COc1ccc2[nH]c(O)c(N=NC(=O)c3oc4ccccc4c3C)c2c1
- GI50 [1]: 5.38 µM
- TGI [1]: 33.7 µM
- GI50 [2]: 2.94 µM
- TGI [2]: > 100 µM
- GI50 [3]: > 100 µM
- TGI [3]: > 100 µM
- GI50 [4]: 1.92 µM
- TGI [4]: 4.02 µM
- GI50 [5]: 2.41 µM
- TGI [5]: 7.72 µM
- GI50 [6]: 3.16 µM
- TGI [6]: > 100 µM
- GI50 [7]: 2.07 µM
- TGI [7]: 5.1 µM
- GI50 [8]: 1.86 µM
- TGI [8]: 4.43 µM
- GI50 [9]: 6.07 µM
- TGI [9]: > 100 µM
- GI50 [10]: 3.22 µM
- TGI [10]: > 100 µM
- GI50 [11]: 5.18 µM
- TGI [11]: 56.8 µM
- GI50 [12]: 2.56 µM
- TGI [12]: 6.62 µM
- GI50 [13]: 2.82 µM
- TGI [13]: > 100 µM
- GI50 [14]: 3.45 µM
- TGI [14]: 16.2 µM
- GI50 [15]: 1.25 µM
- TGI [15]: 2.75 µM
- GI50 [16]: 5.19 µM
- TGI [16]: > 100 µM

SMILES: COc1ccc(CN2c3ccccc3Sc3ccccc32)c(F)c1
- GI50 [17]: 5.06 µM
- TGI [17]: > 100 µM
- GI50 [18]: 0.0398 µM
- TGI [18]: > 100 µM
- GI50 [19]: 0.0379 µM
- TGI [19]: > 100 µM
- GI50 [20]: 0.035 µM
- TGI [20]: > 100 µM
- GI50 [21]: 4.56 µM
- TGI [21]: > 100 µM
- GI50 [22]: 0.038 µM
- TGI [22]: > 100 µM
- GI50 [23]: 0.0432 µM
- TGI [23]: > 100 µM
- GI50 [24]: 0.0381 µM
- TGI [24]: > 100 µM
- GI50 [25]: 0.0327 µM
- TGI [25]: > 100 µM
- GI50 [7]: 5.09 µM
- TGI [7]: > 100 µM
- GI50 [26]: 13 µM
- TGI [26]: > 100 µM
- GI50 [27]: 4.39 µM
- TGI [27]: > 100 µM
- GI50 [28]: 5.05 µM
- TGI [28]: > 100 µM
- GI50 [13]: 10.6 µM
- TGI [13]: > 100 µM
- GI50 [29]: 0.0596 µM
- TGI [29]: > 100 µM
- GI50 [30]: 0.0363 µM
- TGI [30]: > 100 µM
- GI50 [31]: > 100 µM
- TGI [31]: > 100 µM

SMILES: COc1cc2c(cc1C)NC(=O)/C2=C/c1ccccn1
- GI50 [32]: 2.48 µM
- TGI [32]: 8.38 µM
- GI50 [33]: 3.61 µM
- TGI [33]: 8.25 µM
- GI50 [34]: 4.11 µM
- TGI [34]: > 100 µM
- GI50 [35]: 2.48 µM
- TGI [35]: 35.6 µM
- GI50 [36]: 2.72 µM
- TGI [36]: 9.59 µM
- GI50 [37]: 0.782 µM
- TGI [37]: > 100 µM
- GI50 [38]: 4.23 µM
- TGI [38]: > 100 µM
- GI50 [2]: 0.0532 µM
- TGI [2]: 6.88 µM
- GI50 [18]: 2.53 µM
- TGI [18]: > 100 µM
- GI50 [3]: 5.35 µM
- TGI [3]: > 100 µM
- GI50 [4]: 4.24 µM
- TGI [4]: > 100 µM
- GI50 [39]: 2.9 µM
- TGI [39]: 89.4 µM
- GI50 [20]: 5.47 µM
- TGI [20]: > 100 µM
- GI50 [21]: 9.6 µM
- TGI [21]: > 100 µM
- GI50 [22]: 2.71 µM
- TGI [22]: > 100 µM
- GI50 [6]: 3.25 µM
- TGI [6]: 10.4 µM
- GI50 [24]: 3.8 µM
- TGI [24]: > 100 µM
- GI50 [25]: 3.27 µM
- TGI [25]: > 100 µM
- GI50 [7]: 2.02 µM
- TGI [7]: 7.96 µM
- GI50 [40]: 3.77 µM
- TGI [40]: > 100 µM
- GI50 [41]: 4.28 µM
- TGI [41]: > 100 µM
- GI50 [26]: 1.54 µM
- TGI [26]: 4.86 µM
- GI50 [8]: 2.76 µM
- TGI [8]: 9.1 µM
- GI50 [42]: 3.56 µM
- TGI [42]: > 100 µM
- GI50 [9]: 3.37 µM
- TGI [9]: > 100 µM
- GI50 [43]: 2.42 µM
- TGI [43]: 6.27 µM
- GI50 [44]: 2.61 µM
- TGI [44]: 6.81 µM
- GI50 [45]: 8.02 µM
- TGI [45]: > 100 µM
- GI50 [27]: 3.46 µM
- TGI [27]: 43.9 µM
- GI50 [10]: 3.14 µM
- TGI [10]: > 100 µM
- GI50 [46]: 8.73 µM
- TGI [46]: > 100 µM
- GI50 [47]: 3.93 µM
- TGI [47]: > 100 µM
- GI50 [11]: 3.28 µM
- TGI [11]: 24.6 µM
- GI50 [48]: 3.46 µM
- TGI [48]: 13.3 µM
- GI50 [49]: 0.024 µM
- TGI [49]: 2.47 µM
- GI50 [12]: > 100 µM
- TGI [12]: > 100 µM
- GI50 [28]: 10.5 µM
- TGI [28]: > 100 µM
- GI50 [50]: 4.49 µM
- TGI [50]: 27.3 µM
- GI50 [51]: 3.41 µM
- TGI [51]: > 100 µM
- GI50 [13]: 4.01 µM
- TGI [13]: 18.4 µM
- GI50 [14]: 4.07 µM
- TGI [14]: > 100 µM
- GI50 [15]: 8.52 µM
- TGI [15]: > 100 µM
- GI50 [29]: 3.18 µM
- TGI [29]: > 100 µM
- GI50 [30]: 6.91 µM
- TGI [30]: > 100 µM
- GI50 [52]: 19.3 µM
- TGI [52]: > 100 µM
- GI50 [53]: 2.92 µM
- TGI [53]: > 100 µM
- GI50 [31]: 13.1 µM
- TGI [31]: > 100 µM
- GI50 [16]: 2.85 µM
- TGI [16]: 13.9 µM
- GI50 [54]: 12.2 µM
- TGI [54]: > 100 µM
